Measurements reported in patent publication US11541050B2, “Pyrimidine derivatives for the treatment of viral infections” (JANSSEN SCIENCES IRELAND UC, priority 2011, dated 2023).

The molecules below were run on HCV replicon in Huh-7 luc/neo cells (assay: Suppression of HCV replicon replication by conditioned media from compound-treated PBMC). Settings: Hepatitis C virus, Huh-7; read-out: PBMC-HUH7_EC50.
Assay type: cell-based, HCV type 1 b
How it was run: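 Readout is firefly luciferase from an HCV genotype 1b NS3-NS5B bicistronic replicon in Huh-7 cells, measured 24 h after adding conditioned medium. That medium came from overnight culture of compound-treated PBMC (2×10^5/well, human AB serum, at least two donors). Interferon α-2a was the reference.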
CCCCNc1nc(N)ncc1OC [Compound 4] was tested, and the EC50 was 1.14 µM. With CCCCNc1nc(N)ncc1OCC(C)C [Compound 31] the EC50 was 10.4 µM. CCCCCOc1cnc(N)nc1NCCCC [Compound 32] showed an EC50 of 1.06 µM. In the case of CCCCCNc1nc(N)ncc1Oc1ccccc1OC [Compound 38], the EC50 is reported as 11.3 µM. For CCCCCNc1nc(N)ncc1OC [Compound 56], the EC50 was 0.8 µM. CCCCNc1nc(N)ncc1OCc1ccc(-c2ccccc2)cc1 [Compound 58] showed an EC50 of 2.99 µM. CCCCNc1nc(N)ncc1OCC [Compound 60] was tested, and the EC50 was 1.91 µM. CCCCCNc1nc(N)ncc1OCC [Compound 63] showed an EC50 of 2.69 µM. CCCCNc1nc(N)ncc1Oc1ccccc1OC [Compound 64] gave an EC50 of 4.29 µM. CCCCCCNc1nc(N)ncc1OCC [Compound 70] was tested, and the EC50 was > 23.8 µM.

Each molecule was assayed against T1, human TLR8 (wild type sequence) (Homo sapiens, UniProt Q9NR97) (assay: TLR8 cellular NFκB-luc reporter assay, wild type TLR8). Settings: lowest effective concentration, wild type TLR8 (compounds 1-73).
T1 construct: expressed in transfected cells; host or cells: HEK293
T1 sequence (Q9NR97 27-1041): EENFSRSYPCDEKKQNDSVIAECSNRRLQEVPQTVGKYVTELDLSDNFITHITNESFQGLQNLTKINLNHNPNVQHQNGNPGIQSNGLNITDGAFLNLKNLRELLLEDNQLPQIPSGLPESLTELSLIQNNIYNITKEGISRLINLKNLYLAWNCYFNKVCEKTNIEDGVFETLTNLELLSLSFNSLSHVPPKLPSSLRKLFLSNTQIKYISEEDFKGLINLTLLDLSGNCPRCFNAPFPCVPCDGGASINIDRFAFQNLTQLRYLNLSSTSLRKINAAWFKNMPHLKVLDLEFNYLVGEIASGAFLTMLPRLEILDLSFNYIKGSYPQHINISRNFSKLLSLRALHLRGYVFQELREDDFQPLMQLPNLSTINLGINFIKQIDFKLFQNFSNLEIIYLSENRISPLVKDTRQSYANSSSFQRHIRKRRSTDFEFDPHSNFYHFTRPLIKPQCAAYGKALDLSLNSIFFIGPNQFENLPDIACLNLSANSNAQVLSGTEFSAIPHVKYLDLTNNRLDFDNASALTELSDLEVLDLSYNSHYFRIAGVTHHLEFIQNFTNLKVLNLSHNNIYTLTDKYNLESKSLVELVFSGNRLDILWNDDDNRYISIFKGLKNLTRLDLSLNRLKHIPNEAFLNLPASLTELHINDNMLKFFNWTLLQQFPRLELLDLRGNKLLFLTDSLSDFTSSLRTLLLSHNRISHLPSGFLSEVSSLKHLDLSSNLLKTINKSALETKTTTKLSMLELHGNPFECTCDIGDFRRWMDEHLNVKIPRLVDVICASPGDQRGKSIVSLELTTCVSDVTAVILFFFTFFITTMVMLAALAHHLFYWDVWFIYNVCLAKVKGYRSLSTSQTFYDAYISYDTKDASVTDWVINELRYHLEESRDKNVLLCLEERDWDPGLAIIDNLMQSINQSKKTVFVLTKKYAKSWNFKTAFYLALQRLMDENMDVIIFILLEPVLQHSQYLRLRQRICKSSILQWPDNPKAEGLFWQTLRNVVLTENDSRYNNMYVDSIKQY
Assay type: cell-based
Design: unit not given here
How it was run: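 Luciferase signal read after 6 h compound incubation at 37 °C in HEK293 cells carrying transiently transfected TLR7 or TLR8 (wild type or LRR2-deletion) and NFκB-luc. Values are lowest effective concentrations from quadruplicate dose-response curves, effect ≥2-fold above assay SD.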
With CCCCNc1nc(N)ncc1OC [Compound 4] the TLR8-wt_LEC was 2.56. Molecule CCCCNc1nc(N)ncc1OCC(C)C [Compound 31] has a TLR8-wt_LEC of 17.53. CCCCCOc1cnc(N)nc1NCCCC [Compound 32] gave a TLR8-wt_LEC of 9.97. With CCCCCNc1nc(N)ncc1Oc1ccccc1OC [Compound 38] the TLR8-wt_LEC was >50. Molecule CCCCCNc1nc(N)ncc1OC [Compound 56] has a TLR8-wt_LEC of 5.55. Molecule CCCCNc1nc(N)ncc1OCc1ccc(-c2ccccc2)cc1 [Compound 58] has a TLR8-wt_LEC of 3.84. For CCCCNc1nc(N)ncc1OCC [Compound 60], the TLR8-wt_LEC was 2.08. Molecule CCCCCNc1nc(N)ncc1OCC [Compound 63] has a TLR8-wt_LEC of 6.35. For CCCCNc1nc(N)ncc1Oc1ccccc1OC [Compound 64], the TLR8-wt_LEC was 18.43. With CCCCCCNc1nc(N)ncc1OCC [Compound 70] the TLR8-wt_LEC was >24.59.
